Assay results from US20240197839A1, “Recombinant Human Acid Alpha-Glucosidase and Uses Thereof” (Amicus Therapeutics, Inc., priority 2021, published 2024).

Tests used:
Gaa KO mice [1] = assay: muscle biomarker analysis (LAMP1, LC3, dysferlin) in Gaa KO mice; assay type: in vivo; settings: FIG. 15B
Protocol: The therapeutic effects of ATB200 and AT2221 were evaluated and compared against those of Alglucosidase alfa in Gaa KO mice. For the study, male Gaa KO (3- to 4-month old) and age-matched wild-type (WT) mice were used. Alglucosidase alfa was administered via bolus tail vein intravenous (IV) injection. In the co-administration regimen, AT2221 was administered via oral gavage (PO) 30 minutes prior to the IV injection of ATB200. Treatment was given biweekly. Treated mice were sacrificed after 14 days from the last administration and various tissues were collected for further analysis. Table 7 summarizes the study design:
Tissue samples were also analyzed for biomarker changes following the methods discussed in: Khanna R, et al. (2012), “The pharmacological chaperone AT2220 increases recombinant human acid α-glucosidase uptake and glycogen reduction in a mouse model of Pompe disease,” Plos One 7(7): e40776; and Khanna, R et al. (2014), “The Pharmacological Chaperone AT2220 Increases the Specific Activity and Lysosomal Delivery of Mutant Acid α-Glucosidase, and Promotes Glycogen Reduction in a Transgenic Mouse Model of Pompe Disease,” PLoS ONE 9(7): e102092.

Gaa KO mice [2] = assay: single fiber analysis (LAMP1/LC3 co-immunofluorescence, white gastrocnemius); assay type: in vivo; settings: Gaa KO mice
Description: FIG. 17 depicts co-immunofluorescent staining of LAMP1 (green) (see for example, “B”) and LC3 (red) (see, for example, “A”) in single fibers isolated from the white gastrocnemius of Gaa KO mice treated with a vehicle, alglucosidase alfa, or ATB200. “C” depicts clearance of autophagic debris and absence of enlarged lysosome. A minimum of 30 fibers were examined from each animal.
As a result, a significant portion of muscle fibers analyzed (36-60%) from ATB200-treated mice appeared normal or near-normal.

[3] = tested on: adult subjects with late-onset Pompe disease (LOPD); assay: ATB200-03 (PROPEL) phase 3 trial: 6-minute walk test; assay type: in vivo, human
Description: (§1) The ATB200-03 trial was a phase 3 double-blind, randomized, multicenter, international study of ATB200/AT2221 in adult subjects with late-onset Pompe disease (LOPD) who had received enzyme replacement therapy with alglucosidase alfa (i.e., ERT-experienced) or who had never received ERT (i.e., ERT naïve), compared with alglucosidase alfa/placebo.
Eligible subjects were randomly assigned in a 2:1 ratio to receive ATB200/AT2221 or alglucosidase alfa/placebo and stratified by ERT status (ERT-experienced, ERT-naïve) and baseline 6-minute walk distance (6MWD) (75 to <150 meters, 150 to <400 meters, ≥400 meters).
(§2) Efficacy assessments (i.e., functional assessments) included evaluation of ambulatory function (6MWT), motor function tests (Gait, Stair, Gower, and Chair maneuver (GSGC) test and Timed Up and Go (TUG) test), muscle strength (manual muscle testing and quantitative muscle testing), and pulmonary function tests (FVC, SVC, MIP, MEP, and SNIP). Patient reported outcomes (Rasch-built Pompe-specific Activity (R Pact) Scale, EuroQol 5 Dimensions 5 Levels Instrument (EQ-5D-5L), Patient-Reported Outcomes Measurement Information System (PROMIS®) instruments for physical function, fatigue, dyspnea, and upper extremity, and Subject's Global Impression of Change) were recorded. The Physician's Global Impression of Change were also performed.
The primary efficacy endpoint was the change from baseline to Week 52 in 6MWD. The primary endpoint was tested for superiority of ATB200/AT2221 vs Alglucosidase alfa/placebo, using mixed-effect model for repeated measures (MMRM) and pre-specified nonparametric test in case of violation of normality.
Efficacy Analyses. The primary efficacy endpoint (i.e., change from baseline to Week 52 in 6MWD) was analyzed using a parametric analysis of covariance (ANCOVA) model to compare between the new treatment and the control. This model would typically adjust for baseline 6MWD (as a continuous covariate), and the 2 factors used to stratify randomization: ERT status (ERT naïve vs. ERT-experienced) and baseline 6MWD (75 to <150 meters, 150 to <400 meters, ≥400 meters). However, the baseline 6MWD could not be used in the model twice (both as a continuous and a categorical variable) due to the expected high point biserial correlation between them. Thus, the 6MWD continuous variable remained in the model but the categorical 6MWD was removed. The ANCOVA model then had terms for treatment, baseline 6MWD (continuous), and ERT status (categorical).
(§3) PROPEL was a 52-week, double-blind randomized global study designed to assess the efficacy, safety and tolerability of AT-GAA compared to the current standard of care, alglucosidase alfa, an enzyme replacement therapy (ERT). The study enrolled 123 adult Pompe patients who still had the ability to walk and to breathe without mechanical ventilation and was conducted at 62 clinical sites in 24 countries on 5 continents. It was the largest controlled clinical study ever conducted in a lysosomal disorder.

[4] = tested on: adult subjects with late-onset Pompe disease (LOPD); assay: ATB200-03 (PROPEL) phase 3 trial: sitting forced vital capacity; assay type: in vivo, human
Description: as §1, §2
Key secondary efficacy endpoints in a pre-specified hierarchical order of importance were as follows. These secondary endpoints were analyzed using analysis of covariance (ANCOVA) model with last observation carried forward (ITT LOCF). • change from baseline to Week 52 in sitting FVC (% predicted) • change from baseline to Week 52 in the manual muscle test score for the lower extremities • change from baseline to Week 52 in the total score for the PROMIS—physical function • change from baseline to Week 52 in the total score for the PROMIS—fatigue • change from baseline to Week 52 in GSGC total score
as §3

[5] = tested on: adult subjects with late-onset Pompe disease (LOPD); assay: ATB200-03 (PROPEL): Gait, Stair, Gower, Chair (GSGC) test; assay type: in vivo, human; settings: overall population, 52 weeks (p<0.05)
Description: as §1, §2
Key secondary efficacy endpoints in a pre-specified hierarchical order of importance were as follows. […]

[6] = tested on: adult subjects with late-onset Pompe disease (LOPD); assay: ATB200-03 (PROPEL): creatine kinase (CK) biomarker of muscle injury; assay type: in vivo, human; settings: after 52 weeks, overall population (p<0.001)
Description: as §1
(§4) Pharmacodynamic assessments included measurement of biomarkers of muscle injury (creatine kinase (CK) and disease substrate (urinary hexose tetrasaccharide (Hex4)). Sparse blood samples were collected for determination of total GAA protein levels and AT2221 concentrations in plasma for a population PK analysis in ERT-experienced subjects. Serial blood sampling for characterization of the PK profile of total GAA protein and AT2221 were done in ERT-naïve subjects.
(§5) Pharmacodynamic endpoints were as follows: • change from baseline to Week 52 in serum CK level • change from baseline to Week 52 in urinary Hex4 level

[7] = tested on: adult subjects with late-onset Pompe disease (LOPD); assay: ATB200-03 (PROPEL): urinary hexose tetrasaccharide (Hex4) biomarker; assay type: in vivo, human; settings: after 52 weeks, combined ERT switch and ERT naïve population (p<0.001)
Description: as §1, §4, §5

[8] = tested on: adult subjects with late-onset Pompe disease (LOPD); assay: ATB200-03 (PROPEL): safety assessments; assay type: in vivo, human; settings: 52-week treatment
Description: Safety assessments included monitoring of adverse events (AEs), including infusion associated reactions (IARs), clinical laboratory tests (chemistry, hematology, and urinalysis), vital signs, physical examinations including weight, electrocardiograms (ECGs), and immunogenicity. Concomitant medications and nondrug therapies were also be recorded.
The safety profile of ATB200/AT2221 was characterized using incidence of treatment emergent adverse events (TEAEs), serious adverse events (SAEs), and AEs leading to discontinuation of study drug, frequency and severity of immediate and late IARs, and any abnormalities noted in other safety assessments. The impact of immunogenicity to ATB200 and alglucosidase alfa on safety and efficacy was also assessed.
Safety Analyses. Safety data was summarized using counts and percentages for categorical data and descriptive statistics (mean, standard deviation, median, minimum, maximum) for continuous data.

[9] = tested on: subjects with late-onset Pompe disease (LOPD); settings: cited from earlier work
[10] = ERT switch (ERT-experienced) population (n=95)
[11] = ERT treatment naïve population (n=27), listed as Alglucosidase alfa
[12] = overall ERT switch and ERT naïve population (n=122)

[199-arginine,223-histidine]prepro-α-glucosidase (human) [alglucosidase alfa]
LC3 II level by western blot (autophagy) (Gaa KO mice [1]): modest | Fibers with Autophagy Buildup (Gaa KO mice [2]): >90% | Fibers with Normal or Near-normal Appearance (Gaa KO mice [2]): <10% | 6MWD CFBL at Week 52 [3, 10]: 0.0 m | 6MWD CFBL at Week 52 ([3]; ERT treatment naïve population (n=27)): 38 m | 6MWD CFBL at Week 52 [3, 11]: +38.3 (11.1) m | 6MWD CFBL at Week 52 [3, 12]: 7 m | 6MWD CFBL at Week 52 ([3]; overall ERT switch and ERT naïve population (n=122), listed as Alglucosidase alfa): +7.2 m | FVC CFBL at Week 52 [4, 10]: −4.0 (0.9) % predicted | FVC CFBL at Week 52 [4, 11]: −3.6 (1.8) % predicted | FVC CFBL at Week 52 ([4]; ERT treatment naïve population (n=27), listed as alglucosidase alpha): −3.6 % predicted | absolute decline in percent-predicted FVC ([4]; after 52 weeks, combined population): 4.0% | absolute decline in percent-predicted FVC ([4]; over the course of the year, ERT switch patients): 4.0% | FVC CFBL at Week 52 [4, 12]: −4.0 (0.8) % predicted | GSGC scores [5]: worsening | mean change in CK [6]: +15.6% | mean change in urine Hex-4 [7]: +11.0% | patients who discontinued treatment due to an adverse event [8]: 2.6% | Injection associated reactions (IARs) reported ([8]; share of participants): 26% | subjects who did not show an initial improvement during treatment ([9]; 368 LOPD subjects from published studies): > 30% | duration of improvements in initial responders ([9]; longer-term studies): approximately 2 years
